# Experimental data taken from US6967196B1, “Sulfonamide compounds and uses thereof” (Bristol-Myers Squibb Company, priority 1999, dated 2005).
# Like-named read-outs stand apart in the source and are kept apart here.
# System: amyloid β production in transfected H4 (human neuroglioma) cells stably expressing APP constructs
# Assay: In vitro cell-based assay of inhibitors of amyloid β production (ELISA)
# Settings: transfected H4 cells stably expressing APP constructs, approximately 16 hours incubation, amyloid β in medium by ELISA, read-out: ACTIVITY (IC50, inhibition of amyloid β production)
# Outline: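 Aβ secreted into the medium was read by sandwich ELISA (monoclonal capture for the Aβ C-terminus, polyclonal detection for the N-terminus) and calibrated on a standard curve. Before this, APP-expressing H4 cells were exposed to compound for ~16 h at an initial 10-100 μM, with actives then retested in dose-response.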
SMILES,"IC50 (Homo sapiens, 16 h)",IC50
"C[C@H](CCCS(N)(=O)=O)N(c1cc(Cl)ccc1Cl)S(=O)(=O)c1ccc(Cl)cc1 [Example 1210, N-[4-(aminosulfonyl)-1(R)-methylbutyl]-4-chloro-N-(2,5-dichlorophenyl)benzenesulfonamide]",≤ 25 nM,
"C[C@H](CCCS(=O)(=O)N1CCSCC1)N(c1cc(Cl)ccc1Cl)S(=O)(=O)c1ccc(Cl)cc1 [Example 1211, 4-chloro-N-[2,5-dichlorophenyl]-N-[4-[(4-thiomorpholinyl)sulfonyl]-1(R)-methylbutyl]benzenesulfonamide]",≤ 25 nM,
"CC(C)N(C)S(=O)(=O)CCC[C@@H](C)N(c1cc(Cl)ccc1Cl)S(=O)(=O)c1ccc(Cl)cc1 [Example 1212, 4-chloro-N-[2,5-dichlorophenyl]-N-[4-[[N-(1-methylethyl)methylamino]sulfonyl]-1(R)-methylbutyl]benzenesulfonamide]",≤ 25 nM,
"CCN(CC)S(=O)(=O)CCC[C@@H](C)N(c1cc(Cl)ccc1Cl)S(=O)(=O)c1ccc(Cl)cc1 [Example 1213, 4-chloro-N-[2,5-dichlorophenyl]-N-[4-[(diethylamino)sulfonyl]-1(R)-methylbutyl]benzenesulfonamide]",≤ 25 nM,
"C[C@H](CCCS(=O)(=O)NC1CCS(=O)(=O)C1)N(c1cc(Cl)ccc1Cl)S(=O)(=O)c1ccc(Cl)cc1 (stereo partly drawn) [Example 1214, 4-chloro-N-[2,5-dichlorophenyl]-N-[4-[[(tetrahydro-1,1-dioxido-3-thienyl)amino]sulfonyl]-1(R)-methylbutyl]benzenesulfonamide]",≤ 25 nM,
"C[C@H](CCCS(=O)(=O)N(C)C1CCCC1)N(c1cc(Cl)ccc1Cl)S(=O)(=O)c1ccc(Cl)cc1 [Example 1215, 4-chloro-N-[2,5-dichlorophenyl]-N-[4-[[(N-cyclopentyl)methylamino]sulfonyl]-1(R)-methylbutyl]benzenesulfonamide]",,25 to 50 nM
"CC(C)CNS(=O)(=O)CCC[C@@H](C)N(c1cc(Cl)ccc1Cl)S(=O)(=O)c1ccc(Cl)cc1 [Example 1216, 4-chloro-N-[2,5-dichlorophenyl]-N-[4-[(2-methylpropylamino)sulfonyl]-1(R)-methylbutyl]benzenesulfonamide]",50 to 100 nM,
"CCS(=O)(=O)CCC[C@@H](C)N(c1cc(Cl)ccc1CO)S(=O)(=O)c1ccc(Cl)cc1 [Example 1217, 4-chloro-N-[5-chloro-2-(hydroxymethyl)phenyl]-N-[1(R)-methyl-(4-ethylsulfonyl)butyl]benzenesulfonamide]",,≤ 25 nM
C[C@H](CCCS(=O)(=O)C(C)(C)C)N(c1cc(Cl)ccc1CO)S(=O)(=O)c1ccc(Cl)cc1 [Example 1218],,≤ 25 nM
CC(C)[S+]([O-])CCC[C@@H](C)N(c1cc(Cl)ccc1CO)S(=O)(=O)c1ccc(Cl)cc1 (stereo partly shown) [Example 1219],,≤ 25 nM
CC(C)S(=O)(=O)CCC[C@@H](C)N(c1cc(Cl)ccc1CO)S(=O)(=O)c1ccc(Cl)cc1 [Example 1220],,≤ 25 nM
C[C@H](CCC[S+]([O-])C(C)(C)C)N(c1cc(Cl)ccc1CO)S(=O)(=O)c1ccc(Cl)cc1 (stereo partly shown) [Example 1221],,≤ 25 nM
"CC[S+]([O-])CCC[C@@H](C)N(c1cc(Cl)ccc1CO)S(=O)(=O)c1ccc(Cl)cc1 (stereo partly drawn) [Example 1222, 4-chloro-N-[5-chloro-2-(hydroxymethyl)phenyl]-N-[1(R)-methyl-(4-ethylsulfinyl)butyl]benzenesulfonamide]",,≤ 25 nM
CC(C)SCCC[C@@H](C)N(c1cc(Cl)ccc1CO)S(=O)(=O)c1ccc(Cl)cc1 [Example 1223],,≤ 25 nM
"C[C@H](CCC[S+](C)[O-])N(c1cc(Cl)ccc1CO)S(=O)(=O)c1ccc(Cl)cc1 (stereo partly drawn) [Example 1224, 4-chloro-N-[5-chloro-2-(hydroxymethyl)phenyl]-N-[1(R)-methyl-(4-methylsulfinyl)butyl]benzenesulfonamide]",,≤ 25 nM
"C[C@H](CCCS(C)(=O)=O)N(c1cc(Cl)ccc1CO)S(=O)(=O)c1ccc(Cl)cc1 [Example 1225, 4-chloro-N-[5-chloro-2-(hydroxymethyl)phenyl]-N-[1(R)-methyl-(4-methylsulfonyl)butyl]benzenesulfonamide]",,≤ 25 nM
"C[C@H](CCCSc1ccccc1)N(c1cc(Cl)ccc1CO)S(=O)(=O)c1ccc(Cl)cc1 [Example 1226, 4-chloro-N-[5-chloro-2-(hydroxymethyl)phenyl]-N-[1(R)-methyl-(4-phenylthio)butyl]benzenesulfonamide]",,≤ 25 nM
"CCSCCC[C@@H](C)N(c1cc(Cl)ccc1CO)S(=O)(=O)c1ccc(Cl)cc1 [Example 1227, 4-chloro-N-[5-chloro-2-(hydroxymethyl)phenyl]-N-[1(R)-methyl-(4-ethylthio)butyl]benzenesulfonamide]",,≤ 25 nM
"CSCCC[C@@H](C)N(c1cc(Cl)ccc1CO)S(=O)(=O)c1ccc(Cl)cc1 [Example 1228, 4-chloro-N-[5-chloro-2-(hydroxymethyl)phenyl]-N-[1(R)-methyl-(4-methylthio)butyl]benzenesulfonamide]",,≤ 25 nM
C[C@H](CCCSC(C)(C)C)N(c1cc(Cl)ccc1CO)S(=O)(=O)c1ccc(Cl)cc1 [Example 1229],,≤ 25 nM
C[C@H](CCCS(C)(=O)=O)N(c1cc(Cl)ccc1CO)S(=O)(=O)c1ccc(S(C)(=O)=O)cc1 [Example 1230],,25 to 50 nM
"C[C@H](CCCS(=O)(=O)O)N(c1cc(Cl)ccc1CO)S(=O)(=O)c1ccc(Cl)cc1 [Example 1231, (4R)-4-[N-[5-chloro-2-(hydroxymethyl)phenyl][(4-chlorophenyl)sulfonyl]amino]pentylsulfonic acid]",100 to 500 nM,
"CCSCCC[C@@H](C)N(c1cc(Cl)ccc1CO)S(=O)(=O)c1ccc(SCC)cc1 [Example 1232, 4-ethylthio-N-[5-chloro-2-(hydroxymethyl)phenyl]-N-[1(R)-methyl-(4-ethylthio)butyl]benzenesulfonamide]",,> 500 nM
"CNS(=O)(=O)CCC[C@@H](C)N(c1cc(Cl)ccc1CO)S(=O)(=O)c1ccc(Cl)cc1 [Example 1233, 4-chloro-N-[5-chloro-2-(hydroxymethyl)phenyl]-N-[4-[(methylamino)sulfonyl]-1(R)-methylbutyl]benzenesulfonamide]",≤ 25 nM,
"C[C@H](CCCS(=O)(=O)N(C)C)N(c1cc(Cl)ccc1CO)S(=O)(=O)c1ccc(Cl)cc1 [Example 1234, 4-chloro-N-[5-chloro-2-(hydroxymethyl)phenyl]-N-[4-[(dimethylamino)sulfonyl]-1(R)-methylbutyl]benzenesulfonamide]",≤ 25 nM,
"C[C@H](CCCS(N)(=O)=O)N(c1cc(Cl)ccc1CO)S(=O)(=O)c1ccc(Cl)cc1 [Example 1235, 4-chloro-N-[5-chloro-2-(hydroxymethyl)phenyl]-N-[4-(aminosulfonyl)-1(R)-methylbutyl]benzenesulfonamide]",≤ 25 nM,
"C[C@H](CCCS(=O)(=O)N(CCCn1ccnc1)CC1CC1)N(c1cc(Cl)ccc1CO)S(=O)(=O)c1ccc(Cl)cc1 [Example 1236, 4-chloro-N-[5-chloro-2-(hydroxymethyl)phenyl]-N-[4-[N-(cyclopropylmethyl)-N-[3-(1H-imidazol-1-yl)-propyl]aminosulfonyl]-1(R)-methylbutyl]benzenesulfonamide]",100 to 500 nM,
"C[C@H](COC(=O)N1CCCC1)N(c1cc(Cl)ccc1Cl)S(=O)(=O)c1ccc(Cl)cc1 [Example 1237, 4-Chloro-N-(2,5-dichlorophenyl)-N-[2-[[[pyrrolidin-1-yl]carbonyl]oxy]-R-1-methylethyl]benzenesulfonamide]",≤ 25 nM,
